Test results from US20250171762A1, “THERAPEUTICAL PEPTIDOMIMETIC” (UNIVERSITA' DEGLI STUDI DI ROMA "LA SAPIENZA", priority 2021, published 2025).
“Also recorded” adds a separate entry of the source. Non-standard residues stand in square brackets, D forms with d. Residues, ends and D or L forms follow the SMILES beside them. No end group written: not given here.

Key:
[1] = system: cybrids bearing the m·3243A>G mutation in mt-tRNA^Leu(UUR); assay: Fluorescence confocal microscopy of Cy5-linked constructs, uptake and mitochondrial co-localization; assay type: cell-based, human; details: 0.25 μM, 24 hours, Mitotracker Red
Text: Top row (constructs): exogenously administered constructs covalently linked to a fluorescent dye (Cy5) are localized within cells.
Middle row (Mitotracker red): mitochondria within the same cells shown in the top row are highlighted by Mitotracker red, a dye able to link specifically and exclusively to mitochondria.
The cells used for the experiments are trans-mitochondrial hybrids (hereafter named cybrids) bearing the m·3243A>G mutation in mt-tRNA^Leu(UUR), which is associated with the MELAS syndrome.
Cells were incubated for 24 hours with 0.25 μM of constructs. Half an hour before imaging, cells were stained with Mitotracker Red. Finally, fluorescence signals were detected with a laser scanning confocal microscope. PCC: Pearson's Correlation Coefficient (mean±SEM of six images).
Constructs made of compounds listed in Table 1 linked to the Cy5 fluorophore via maleimide cross-linker, were administered to sub-confluent cybrid cell cultures at 0.25 μM in glucose medium. […] The fluorescence images were analyzed with the ImageJ software (14, https://imagej.nih.gov/ij/, 1997-2018) to determine the Pearson's correlation coefficient.
The uptake and localization of Cy5-conjugated constructs in cybrids was assessed by flow cytometry, confocal microscopy, and immunoblot analysis on isolated mitochondria (FIG. 1). […]

[2] = Plasma stability: incubation in human plasma, UPLC-MS quantification; assay type: in vitro ADME; details: for plasma stability compared with another peptide: human plasma, FIG. 4; for degradation in human plasma: no time stated
Description: Panel B. Time course decay of β32_33, PMT, PMT-8a and PMT-8b incubated up to 72 h with human plasma from four healthy subjects. […] The Y axis indicates the signal intensity of the four peptides. Samples of plasma were obtained from healthy volunteers and immediately used for the analysis. Either β32_33 peptide or PMT for the experiment in panel A, and β32_33 peptide, PMT, PMT-8a or PMT-8b for the experiment in panel B, was incubated in plasma at a final concentration of 0.2 mM, at 37° C., up to 3 h (A) or 72 h (B). At the indicated time points, i.e., T0 and 3 h (A) or T0, 1.5, 3, 6 and 72 h (B), aliquots of 200 μL were treated with 3 volumes of acetonitrile containing 1% formic acid and extracted by a solid phase extraction system to remove proteins and phospholipids. Samples were dried under vacuum, resuspended in 100 μL of 0.1% formic acid containing 5% acetonitrile, and analyzed with a Water Acquity H-Class UPLC system equipped with a single-quadruple mass detector with electrospray ionization source. Samples were separated onto a reverse phase C18 column by performing a gradient with two mobile phases consisting of 0.1% formic acid in water and 0.1% formic acid in acetonitrile at a flow rate of 0.5 mL/min. Quantification was performed by Selected lon Recording (SIR): at m/z=917.88, corresponding to the [M+2 H]^2+ion obtained from either β32_33 or PMT; at m/z=961.42, corresponding to the [M+H]^+ion obtained from PMT-8a; and at m/z=869.48, corresponding to the [M+H]^+ion obtained from PMT-8b.
In order to evaluate whether compounds (βp and d-βp) are stable in blood or hydrolyzed by plasma peptidases, we set up a chromatographic assay to evaluate compound concentration after incubation in human plasma.
Blood was drawn by venipuncture in vacutainer containing EDTA as an anticoagulant.
Two different samples from healthy volunteers were used. Plasma was separated by centrifugation and immediately used for the experiments. Each compound was dissolved in 500 uL plasma at a final concentration of 0.2 mM, and split into two aliquots, one of which was immediately analyzed to assess the basal compound level; the other was incubated at 37° C. for 3 hours under gentle shaking. In order to perform chromatographic analysis the samples were treated with 3 volumes of acetonitrile containing 1% formic acid, and then extracted by using the Ostro™ pass-through sample preparation system to remove proteins and phospholipids. Samples were dried under vacuum and then resuspended in 100 uL of 0.1% formic acid containing 5% acetonitrile, then directly injected onto the chromatographic column.
Chromatographic analyses were performed on a Water Acquity H-Class UPLC system (Waters, Milford, MA, USA), including a quaternary solvent manager (QSM), a sample manager with a flow through needle system (FTN), a photodiode array detector (PDA) and a single-quadruple mass detector with electrospray ionization source (ACQUITY QDa). Analyses were performed on a reverse phase C18 column (75 mm×3.2 mm i.d., 2.5 μm particle size). The mobile phase was solvent A, 0.1% formic acid in water, and solvent B, 0.1% formic acid in acetonitrile. The flow rate was 0.5 mL/min, the column temperature was set at 25° C. and the elution was performed by linearly increasing the concentration of solvent B up to 70% in 7 minutes. Mass spectrometric detection was performed in the positive electrospray ionization mode, using nitrogen as the nebulizer gas. Analyses were performed in the Total lon Current (TIC) mode with a mass range of 100-1200 m/z. The capillary voltage was 0.8 kV, cone voltage 8 V, ion source temperature 120° C. and probe temperature 600° C. Quantification of each compound was performed by Selected lon Recording (SIR) at m/z 917.88, corresponding to the […]

[3] = system: m·3243A>G mutant cybrids, m·8344A>G mutant cybrids and healthy control cells; assay: Mitochondrial ToxGlo Assay (cyto- and mitotoxicity)
Description: Images show the effect of increasing PMT concentrations on healthy and mutant cells, compared with the effect of a cytotoxic (C1) and a mitotoxic (C2) agent, evaluated using the Mitochondrial ToxGlo™ Assay.
The X and Y axis show the compounds incubated with cells and the ratio between fluorescent and luminescent signal, respectively. In this assay, fluorescence increase indicates a decrease in cell membrane integrity, and luminescence decrease indicates a decrease in cellular ATP levels. […] The horizontal black line represents fluorescence/luminescence signal ratio of untreated cells. WT: wild type; 3243: cells bearing the mutation m·3243A>G in mt-tRNA^Leu(UUR); L-8344 and H-8344: cells bearing low and high load of mutation m·8344A>G in mt-tRNA^Lys.
Cybrids were plated on a 96-well plate in normal growth conditions (i.e., glucose medium) and treated with different PMT concentrations. […] Fluorescence and luminescence were measured with a GloMax Multi+Luminometer. […]
Mitochondrial toxicity exerted by PMT was measured using the Mitochondrial ToxGlo™ Assay (Promega Italia Srl., Milano, Italy) according to the manufacturer's protocol. […] Subsequently, cells were incubated with specific reagents and fluorescence or luminescence were measured with a GloMax Multi+Luminometer (Promega Italia Srl., Milano, Italy).

[4] = system: m·3243A>G mt-tRNA^Leu(UUR) mutant cybrids; assay: Cell viability, Trypan blue dye exclusion, galactose vs glucose medium; assay type: cell-based, human; details: 5 μM, galactose medium, 24 hours
Description: For viability assessment, cells were plated in either glucose or galactose medium. The reason for this is that a viability phenotype can be appreciated in cells growing on galactose, which forces cells to rely on mitochondrial respiration, but not in cells growing on glucose. After 24 hours incubation, the number of viable cells in the galactose medium was normalized to the number of viable cells in glucose at the same time point, which represents the normal growth condition. Data are compared with the value of mutant cells incubated with vehicle only. Mean±SEM of at least three independent experiments is shown.
For viability assessment, cells were plated in either glucose or galactose medium. The reason for this is that a viability phenotype can be appreciated in cells growing on galactose, which forces cells to rely on mitochondrial respiration, but not in cells growing on glucose. After 24 hours incubation the number of viable cells in galactose medium was normalized to the number of viable cells in glucose (that represents the normal growth condition) at the same time point. Data are compared with the value of mutant cells incubated with vehicle only. Means±SEM of at least two independent experiments are shown.
Previously established osteosarcoma derived (143B.TK-) cybrid cell lines from patients, which bear either the m·3243A>G mutation in mt-tRNA^Leu(UUR) or the m·8344A>G mutation in mt-tRNA^Lys, and controls were used (generous gift from Dr Valeria Tiranti and Dr Valerio Carelli).
Cybrid cells were cultured in Dulbecco's modified Eagle's medium (DMEM), supplemented with 4.5 g/l d-glucose, 10% foetal bovine serum (FBS), 2 mM I-glutamine, 50 μg/ML uridine, 100 U/mL penicillin, and […] (referred to as glucose medium) in a humidified atmosphere of 95% air and 5% CO2 at 37° C. For cell viability experiments, cells were grown either in glucose medium or in glucose-free DMEM, supplemented with 5 mM galactose, […] sodium pyruvate, and 10% FBS (referred to as galactose medium). The reason for using the latter medium is that a pathological phenotype can be appreciated in cells growing on galactose, which forces cells to rely on mitochondrial respiration, but not in cells growing on glucose.
[…] Cells were switched in glucose or galactose and after 24 hours cell viability was measured by the Trypan blue dye exclusion assay. Cells were harvested with 0.25% trypsin and 0.2% EDTA, washed, suspended in PBS in the presence of Trypan blue solution (Sigma-Aldrich) at 1:1 ratio and counted using a hemocytometer. The number of viable cells in galactose medium was expressed as a percentage of the number of cells in glucose medium.
(§1) To evaluate the effect of the compounds on viability, cybrids were grown in glucose-free medium supplemented with galactose (galactose medium), a condition that both forces cells to rely on the mt respiratory chain for ATP synthesis and causes a significant growth reduction in the presence of mutations.
as §1, with “PMT and M-PMT” for “the compounds”

remaining at 72 h, 0.2 mM ([2]; human, human plasma from healthy volunteers, second experiment, plasma of four healthy volunteers, 72 h, read-out: peptide present after incubation in plasma) [%]	Molecule	penetration of cell membranes and co-localization with mitochondria [1]	plasma stability compared with another peptide [2]	degradation in human plasma [2]	detectable degradation in plasma ([2]; second experiment, plasma of four healthy volunteers, up to 72 h)	cyto- and mito-toxicity ([3]; 5, 10, 20 μM (up to 20 μM), mutant and wild-type cells)	effect on fluorescence and luminescence (positive controls) ([3]; 400 μg/ml digitonin (C1) or 100 μl sodium azide (C2), three hours)	viability of mutant cybrids vs non treated mutant cells [4]
–	d(K)d(K)d(S)d(F)d(L)d(S)d(P)d(R) ([dK][dK][dS][dF][dL][dS][dP][dR]) [PMT-8a]	Penetrate Cell Membranes and Co-Localize with Mitochondria	even more stable than the full-length 16-residue long PMT; also recorded: slower degradation than the β32_33 peptide	does not undergo degradation at all	did not undergo detectable degradation	neither cytotoxic nor mitotoxic	–	–
–	[N-]=[N+]=[N-] [sodium azide, reference compound]	–	–	–	–	–	a decrease in luminescence and has no effect on fluorescence	–
80	CC[C@@H](C)[C@@H](NC(=O)[C@@H](CC(C)C)NC(=O)[C@@H](C)NC(=O)[C@H](NC(=O)[C@@H](CCCNC(=N)N)NC(=O)[C@H]1CCCN1C(=O)[C@@H](CO)NC(=O)[C@H](N)CC(C)C)[C@H](C)O)C(=O)O [PMT-8b, d(L)d(S)d(P)d(R)d(T)d(A)d(L)d(I)] (H-[dL][dS][dP][dR][dT][dA][dL][dI]-OH; N-terminus and C-terminus assumed)	Penetrate Cell Membranes and Co-Localize with Mitochondria	even more stable than the full-length 16-residue long PMT; also recorded: slower degradation than the β32_33 peptide	does not undergo degradation at all	–	–	–	significantly improved
